Where two headings read alike, the source gives them in different places.
Tests used:
[1] = tested on: NS5A chimeric genotype 1b Con1 replicon with genotype 3a S52 strain NS5A gene; assay: Replicon assay, genotype 3a NS5A chimera; type: cell-based, HCV; settings: Hepatitis C virus
[2] = tested on: NS5A chimeric genotype 2a JFH-1 replicon with genotype 2a J6 strain NS5A gene (M31 present); assay: Replicon assay, genotype 2a J6 NS5A chimera; type: cell-based, HCV; settings: Hepatitis C virus
Outline: (§1)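 EC50 was fitted by non-linear regression to Renilla luciferase signal after 72 h of exposure to 3-fold serially diluted compound (10 mM DMSO stocks). Controls were DMSO (none) and ITMN-191 above 100×EC50 (full). Chimeric 2a replicons were used either stable or transiently transfected into Huh-Lunet cells.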

[3] = tested on: stable HCV 2a JFH-1 Rluc replicon cells (L31 present in NS5A); assay: Renilla luciferase HCV replicon reporter assay, genotype 2a JFH-1; type: cell-based; settings: Hepatitis C virus
Outline: (§2)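 First, 3-fold serial dilutions of compound went onto replicon cells, DMSO serving as no-inhibition control and ITMN-191 at >100×EC50 as positive control. Next came 72 h incubation, lysis and Renilla luciferase measurement. Finally, EC50 was calculated by non-linear regression; replicons covered genotypes 1a H77, 1b Con1, 2a JFH-1 (L31) and J6-NS5A chimera (M31).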

[4] = tested on: NS5A chimeric genotype 1b Con1 replicon with genotype 4a ED43 strain NS5A gene; assay: Replicon assay, genotype 4a NS5A chimera; type: cell-based, HCV; settings: Hepatitis C virus
[5] = tested on: NS5A chimeric genotype 2a JFH-1 replicon with genotype 2b MD2b-1 strain NS5A gene (M31 present); assay: Replicon assay, genotype 2b NS5A chimera; type: cell-based, HCV; settings: Hepatitis C virus
Outline: as §1

[6] = IV and PO single dose pharmacokinetic studies in SD rats; type: in vivo, male Sprague-Dawley (SD) rats; settings: Sprague-Dawley, rat, plasma, male SD rats, PO 2 mg/kg vs IV infusion 1 mg/kg, read-out: Rat % F
Description: IV and PO Single Dose Pharmacokinetic Studies in SD Rats:
The pharmacokinetics of selected compounds was characterized in male Sprague-Dawley (SD) rats (250-300g). In this study, two groups of naïve purebred SD rats (N=3 per group, fasted over night) received the selected compound either as an intravenous (IV) infusion (1 mg/kg over 30 minutes) via the jugular vein or by oral gavage (2 mg/kg). The intravenous (IV) dosing vehicle was 5% ethanol, 35% polyethylene glycol 400 (PEG 400) and 60% water pH 2.0. The oral dosing vehicle was 5% ethanol, 55% PEG 400 and 40% citrate buffer pH 2.2.
Serial blood samples (approximately 0.3 mL each) were collected from jugular vein or other suitable vein at specified time points. For the IV infusion group, the blood samples were collected predose and at 0.25, 0.48, 0.58, 0.75, 1.5, 3, 6, 8, 12 and 24 hours after the start of infusion. For the oral group, the blood samples were collected predose and at 0.25, 0.50, 1, 2, 4, 6, 8, 12 and 24 hours after dosing. The blood samples were collected into VacutainerγM tubes containing EDTA-K3 as the anti-coagulant and were centrifuged at approximately 4° C. to obtain plasma. The plasma samples were stored at −20° C. until analysis by LC/MS/MS.
A bioanalytical method utilizing high performance liquid chromatography coupled to tandem mass spectrometry (LC/MS/MS) was developed for analysis of the selected compound in rat plasma. Detection was performed using selected reaction monitoring (SRM); Ions representing the precursor (M+H)^+ species was selected in quadrupole 1 (Q1) and collided with argon gas in the collision cell (Q2) to generate specific product ion, which was subsequently monitored by quadrupole 3 (Q3). Standard curve and quality control samples were prepared in male rat plasma and processed in the same way as the test samples to generate quantitative data.
Pharmacokinetic parameters were generated using non-compartmental pharmacokinetic analysis (Phoenix WinNonlin, version 6.3). Values below the lower limit of quantification (LLOQ) were assigned a value of zero if predose and treated as missing thereafter. Area under the curve (AUC) was calculated using the linear trapezoidal rule. The oral bioavailability (% F) was determined by comparison of the area under the curve (AUC) of the compound and/or a metabolite generated in plasma following oral administration to that generated following intravenous administration.

[7] = tested on: stable HCV 1b RLuc replicon cells (dicistronic genotype 1b Con1 replicon); assay: Renilla luciferase HCV replicon reporter assay, genotype 1b; type: cell-based; settings: Hepatitis C virus, 72 h, stable 1b Con1 RLuc replicon cells, 72 hours; read-out: 1b
Outline: as §2

[8] = tested on: stable HCV 1a RLuc replicon cells (dicistronic genotype 1a H77 replicon); assay: Renilla luciferase HCV replicon reporter assay, genotype 1a; type: cell-based; settings: Hepatitis C virus, 72 h, stable 1a H77 RLuc replicon cells
Outline: as §2

[9] = read-out: 3a (s) (nM), genotype 3a NS5A chimeric replicon, stable replicon cells (s)
[10] = read-out: 3a (s), (s), activity range
[11] = read-out: 2a J6 (t) (nM), genotype 2a J6 NS5A chimeric replicon (M31), transiently transfected (t) into Huh-Lunet cells
[12] = read-out: 2a J6 (t), transiently transfected (t) into Huh-Lunet cells, activity range
[13] = read-out: 2a JFH (nM), genotype 2a JFH-1 replicon (L31 in NS5A), stable cells
[14] = read-out: 2a JFH, stable 2a JFH-1 Rluc replicon cells, L31 in NS5A, activity range
[15] = read-out: 4a (s) (nM), genotype 4a NS5A chimeric replicon, stable replicon cells (s)
[16] = read-out: 4a (s), (s), activity range
[17] = 2BS, read-out: 2b (s), stably replicating replicon cells (s), activity range
[18] = read-out: 2b (s) (nM), genotype 2b MD2b-1 NS5A chimeric replicon (M31), stably replicating replicon cells (s)
[19] = read-out: 2b (t) (nM), genotype 2b MD2b-1 NS5A chimeric replicon (M31), transiently transfected (t)
[20] = read-out: 2b (t), transiently transfected (t) into Huh-Lunet cells, activity range

Row | Compound | EC50 [1, 9] [nM] | EC50 [1, 10] [nM] | EC50 [2, 11] [nM] | EC50 [2, 12] [nM] | EC50 [3, 13] [nM] | EC50 [3, 14] [nM] | EC50 [4, 15] [nM] | EC50 [4, 16] [nM] | EC50 [5, 17] [nM] | EC50 [5, 18] [nM] | EC50 [5, 19] [nM] | EC50 [5, 20] [nM] | bioavailability [6] [%] | EC50 [7] [nM] | EC50 [8] [nM] | EC50 ([8]; activity range) [nM]
1 | COC(=O)N[C@H](C(=O)N1C[C@@H](C)C[C@H]1c1nc2ccc3cc4c(cc3c2[nH]1)OCc1cc(-c2cnc([C@@H]3CC[C@H](C)N3C(=O)[C@@H](NC(=O)OC)[C@@H](C)OC)[nH]2)ccc1-4)[C@@H](C)OC [DY, Methyl [(2S,3R)-3-methoxy-1-{(2S,5S)-2-[9-(2-{(2S,5S)-1-[N-(methoxycarbonyl)-O-methyl-L-threonyl]-5-methylpyrrolidin-2-yl}-1H-imidazol-5-yl)-1,11-dihydroisochromeno[4′,3′:6,7]naphtho[1,2-d]imidazol-2-yl]-4-methylpyrrolidin-1-yl}-1-oxobutan-2-yl]carbamate] | 0.13 | 0.1 to 0.999 | 0.047 | < 0.1 | 0.028 | < 0.1 | 0.035 | < 0.1 | 0.1 to 0.999 | 0.199 | 0.083 | < 0.1 | 8.3 | 0.065 | 0.044 | < 0.1
2 | COC(=O)NC(C(=O)N1[C@@H](C)CC[C@H]1c1nc2ccc3cc4c(cc3c2[nH]1)OCc1cc(-c2cnc([C@@H]3CC[C@H](C)N3C(=O)[C@@H](NC(=O)OC)C3CCOCC3)[nH]2)ccc1-4)C(C)C (stereo partly drawn) [EA, Methyl(1-{(2S,5S)-2-[9-(2-{(2S,5S)-1-[(2S)-2-[(methoxycarbonyl)amino]-2-(tetra hydro-2H-pyran-4-yl)acetyl]-5-methylpyrrolidin-2-yl}-1H-imidazol-5-yl)-1,11-dihydroisochromeno[4′,3′:6,7]naphtho[1,2-d]imidazol-2-yl]-5-methylpyrrolidin-1-yl}-3-methyl-1-oxobutan-2-yl)carbamate] | 0.035 | < 0.1 | 0.035 | < 0.1 | 0.015 | < 0.1 | 0.019 | < 0.1 | < 0.1 | 0.088 | 0.037 | < 0.1 | 10.2 | 0.028 | 0.018 | < 0.1
3 | CC[C@H](C)[C@H](NC(=O)OC)C(=O)N1[C@@H](C)CC[C@H]1c1ncc(-c2ccc3c(c2)COc2cc4c(ccc5nc([C@@H]6CC[C@H](C)N6C(=O)[C@@H](NC(=O)OC)[C@@H](C)OC)[nH]c54)cc2-3)[nH]1 [GF, Methyl {(2S,3S)-1-[(2S,5S)-2-(5-{2-[(2S,5S)-1-{(2S,3R)-3-methoxy-2-[(methoxycarbonyl)amino]butanoyl}-5-methylpyrrolidin-2-yl]-1,11-dihydroisochromeno[4′,3′:6,7]naphtho[1,2-d]imidazol-9-yl}-1H-imidazol-2-yl)-5-methylpyrrolidin-1-yl]-3-methyl-1-oxopentan-2-yl}carbamate] | 0.027 | < 0.1 |  |  | 0.018 | < 0.1 | 0.011 | < 0.1 | 0.1 to 0.999 | 0.203 |  |  | 15.6 | 0.015 | 0.007 | < 0.1
4 | CC[C@H]1CC[C@@H](c2nc3ccc4cc5c(cc4c3[nH]2)OCc2cc(-c3cnc([C@@H]4CC[C@H](C)N4C(=O)[C@@H](NC(=O)OC)[C@@H](C)CC)[nH]3)ccc2-5)N1C(=O)[C@@H](NC(=O)OC)C1CCOCC1 [IK] | 0.155 | 0.1 to 0.999 |  |  | 0.015 | < 0.1 | 0.042 | < 0.1 | 0.1 to 0.999 | 0.181 |  |  | 27.4 | 0.038 | 0.039 | < 0.1
